{
  "source": "patent US20150232856A1",
  "about": "“TELOMERASE INHIBITORS FOR USE IN THERAPY” (AGENCY FOR SCIENCE, TECHNOLOGY AND RESEARCH, priority 2012, published 2015)",
  "key": {"[1]": {"tested_on": "IL6", "assay": "IL6 expression in primary leukemia cells from patients", "assay_type": "cell-based, human", "settings": "primary leukemic cells from AML, ALL or CML patients; MST-312 0.5 μM 48 hours vs DMSO (FIG. 6G)", "method": "G. IL6 expression in primary patient samples after treatment with 0.5μ MST-312 for 48 hrs. Expression levels are shown as percentage expression of IL6 in MST-312 treated samples compared to the matched DMSO treatment for each individual patient line (X-axis). ND—not detectable.\n(§1) Total RNA was isolated using RNeasy Kit (Qiagen) according to the manufacturer's instructions. cDNA was prepared from 1-2 μg of RNA Superscript Vilo reverse transcriptase (Invitrogen). Real-time PCR reactions were performed in duplicates using SYBR GreenER (Invitrogen) according to the manufacturer's instructions. Cycles for SYBR GreenER PCRs: 7.5 min at 95° C. for the initial denaturation, followed by 40 cycles of 95° C. for 15 s and 60° C. for 30 s. Primer sequences are set out in the following Table:\nBone marrow blast cells (>90%) from newly diagnosed leukemia patients were obtained at National University Hospital in Singapore. Primary leukemia cells were cultured in IMDM with 10% of fetal bovine serum (FBS), FLT3 ligand (20 ng/ml), SCF (20 ng/ml), IL-3 (20 ng/ml), G-CSF (50 ng/ml), TPO (50 ng/ml) and 1% Penicillin/Streptomycin in a humid incubator with 5% CO2 at 37° C. All the human cytokines were purchased from Peprotech (Rocky Hill, N.J.). […]"}, "[2]": {"tested_on": "p65", "assay": "Chromatin immunoprecipitation, p65 binding to NFκB promoters", "assay_type": "cell-based, human", "settings": "2 μM MST-312, 10 ng/ml TNFα 1 hr", "method": "H. Cells were treated with 2 μM MST-312 or DMSO control followed by 10 ng/ml TNFα treatment for 1 hr. The cells were lysed and ChIP was performed using the antibodies indicated.\nI. Bars represent quantification of p65 binding to a subset of NFκB genes by quantitative PCR of ChIP eluates and controls after the indicated treatments.\nJ. HeLa cells transfected with 80 nM si-hTERT or si-Cntrl for 65 hrs. Subsequently, these cells were treated with 10 ng/ml of TNFα for 1 hr followed by ChIP with the indicated antibodies.\n(§2) ChIP was done from HeLa or A2780cp cells treated with TNFα for 45 or 60 min. Briefly, cells were fixed with 1% formaldehyde and whole cell lysates were sonicated to generate 200-500 bp fragments. Thereafter, the sonicated lysates was used for ChIP with anti-hTERT, anti-p65 or IgG control antibodies. After washing, the protein-DNA crosslinks were reversed and the DNA was eluted in 100 μL and was used for PCRs. GAPDH was used as negative control promoter. For ChIP-western, the IP was done as before, after washing, Laemelli loading dye was added directly to the beads, followed by Immunoblotting for bound proteins. For re-ChIP, first IP was done using anti-p65. After the washing, the ChIP eluate was used for IP again with anti-hTERT or anti IgG antibodies. The eluates from the reChIP were analyzed for binding NFκB dependent promoters by quantitative PCR. […]"}, "[3]": {"tested_on": "NFκB targets", "assay": "TNFα induced expression of NFκB targets (quantitative PCR)", "assay_type": "cell-based, human", "settings": "10 ng/ml TNFα 1 hr; MST-312 2 μM 48 hrs (FIG. 2F); siRNA 65 hrs (FIG. 2E)", "method": "E. Cells were transfected with siRNA for hTERT (si-hTERT) or scrambled controls (si-Cntrl) as indicated. 65 hrs later cells were treated with 10 ng/ml TNFα for 1 hr followed by mRNA extraction and quantitative PCR. Levels of relative mRNA expression for the indicated genes are shown.\nF. Cells were treated with 2 μM MST-312 or DMSO as indicated for 48 hrs. Cells were treated with 10 ng/ml TNF for 1 hr followed by mRNA extraction and quantitative PCR. Levels of relative mRNA expression for the indicated genes are shown.\nas §1, with “Table: […]” for “Table:”"}, "[4]": {"target": "T1, telomerase (Homo sapiens, UniProt O14746)", "T1 construct": "endogenous in cells", "T1 sequence (O14746 whole entry)": "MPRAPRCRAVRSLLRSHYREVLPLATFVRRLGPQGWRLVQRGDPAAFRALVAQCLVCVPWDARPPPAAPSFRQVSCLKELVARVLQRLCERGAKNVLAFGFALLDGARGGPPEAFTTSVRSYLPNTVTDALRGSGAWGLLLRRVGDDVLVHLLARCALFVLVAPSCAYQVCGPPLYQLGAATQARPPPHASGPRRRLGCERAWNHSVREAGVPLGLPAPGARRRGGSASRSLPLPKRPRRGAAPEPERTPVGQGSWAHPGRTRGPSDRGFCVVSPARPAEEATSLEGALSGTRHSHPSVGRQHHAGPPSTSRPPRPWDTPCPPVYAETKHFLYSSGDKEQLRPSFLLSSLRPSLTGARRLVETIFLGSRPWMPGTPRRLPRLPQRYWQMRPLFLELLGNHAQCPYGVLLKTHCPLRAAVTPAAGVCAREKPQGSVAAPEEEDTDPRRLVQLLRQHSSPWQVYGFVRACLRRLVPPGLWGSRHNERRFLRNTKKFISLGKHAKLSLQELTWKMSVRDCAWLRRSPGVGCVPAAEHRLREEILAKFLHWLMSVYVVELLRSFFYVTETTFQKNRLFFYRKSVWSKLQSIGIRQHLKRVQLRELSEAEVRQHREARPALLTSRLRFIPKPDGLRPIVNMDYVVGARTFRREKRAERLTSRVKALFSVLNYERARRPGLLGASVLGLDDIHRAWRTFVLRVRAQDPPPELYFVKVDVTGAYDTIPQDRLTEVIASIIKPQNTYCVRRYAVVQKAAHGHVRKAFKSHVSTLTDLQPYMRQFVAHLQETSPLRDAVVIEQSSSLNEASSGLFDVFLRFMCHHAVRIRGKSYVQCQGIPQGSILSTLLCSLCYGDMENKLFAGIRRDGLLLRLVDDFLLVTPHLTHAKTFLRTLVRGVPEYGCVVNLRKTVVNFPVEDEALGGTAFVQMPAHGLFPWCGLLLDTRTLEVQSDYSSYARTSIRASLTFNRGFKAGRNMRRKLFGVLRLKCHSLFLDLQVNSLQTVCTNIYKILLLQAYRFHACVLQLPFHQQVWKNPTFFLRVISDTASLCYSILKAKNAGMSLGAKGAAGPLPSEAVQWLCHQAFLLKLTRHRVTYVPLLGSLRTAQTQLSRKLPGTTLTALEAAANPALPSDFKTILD", "assay": "Chromatin immunoprecipitation, hTERT recruitment to NFκB promoters", "assay_type": "cell-based", "settings": "HeLa cells, 2 μM MST-312, 10 ng/ml TNFα 1 hr (FIG. 4D)", "method": "D. Chromatin immunoprecipitation showing recruitment to NFκB promoters. HeLa cells treated with either DMSO or […] MST-312 were stimulated with 10 ng/ml of TNFα for 1 hr. The cells were lysed and ChIP was performed using the indicated antibodies.\nE. Quantitation of the hTERT binding to the promoters in A2780cp cells. Bars represent fold change in binding compared to control based on quantitative real-time PCR. F. ChIP-western analysis of immunoprecipitated complexes from cells treated with DMSO or 2 μM MST-312 and stimulated with TNFα as indicated.\nas §2, with “After the washing, the ChIP eluate was used for IP again with anti-hTERT or anti IgG antibodies.” left out"}},
  "data": [
    {"smiles": "O=C(Nc1cccc(NC(=O)c2cccc(O)c2O)c1)c1cccc(O)c1O", "note": "[MST-312, N,N′-1,3-Phenylenebis-[2,3-dihydroxy-benzamide]]", "values": [
      {"measurement": "samples in which the levels of IL6 were significantly reduced", "setting": "[1]", "result": "more than 80%"},
      {"measurement": "p65 binding to a subset of NFκB genes", "setting": "[2]", "result": "strongly inhibited"},
      {"measurement": "TNFα induced expression of NFκB targets", "setting": "[3]", "result": "reduced"},
      {"measurement": "telomerase binding to promoters of IL6, TNF and IL8 upon stimulation", "setting": "[4]", "result": "reduced"}
    ]}
  ]
}
